# According to patent publication US20060069132A1, “Azolecarboxamide herbicides” (priority 2004, published 2006):
# Like-named read-outs stand apart in the source and are kept apart here.
# How the values were obtained:
# ducksalad = assay: Test B flooded paddy test; assay type: in vivo, Heteranthera limosa; details: 1000 g ai/ha, scale 0 to 100 (0 no effect, 100 complete control); for pest or weed control at 1000 g/ha: Heteranthera limosa, 336 h, read-out: Ducksalad plant response rating
# Procedure, shortened: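 Read-out: visual comparison with controls, scored 0 to 100, where 100 means complete control and 0 no effect. Formulated chemicals were applied postemergence to plants 2–18 cm tall (1- to 4-leaf), or to flooded-paddy plants at the 2-leaf stage, then held 13 to 15 days under glass.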
# redroot pigweed = assay: Test A pre-/postemergence herbicide test; assay type: in vivo, Amaranthus retroflexus; details: for pest or weed control at 500 g/ha / pest or weed control at 2000 g/ha: Amaranthus retroflexus, 240 h
# Procedure, shortened: (§1)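 Pre: seeded sandy loam, directed soil spray, compound in non-phytotoxic solvent + surfactant. Post: 1–2-leaf plants (2–10 cm), sprayed to runoff. Greenhouse ~10 d; visual injury vs untreated, 0–100 scale.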
# barnyardgrass = assay: Test B pre-/postemergence herbicide test; assay type: in vivo, Echinochloa crus-galli; details: for pest or weed control at 125 g/ha / pest or weed control at 500 g/ha: Echinochloa crus-galli
# Procedure, shortened: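 Pre: seeds sown, then sprayed. Post: 1–4-leaf plants (2–18 cm) sprayed at the same time. Paddy: flooded, treated at 2-leaf stage. Formulation: non-phytotoxic solvent with surfactant. Greenhouse 13–15 days; visual 0–100 score relative to controls.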
# giant foxtail = assay: Test A pre-/postemergence herbicide test; assay type: in vivo, Setaria faberi; details: for pest or weed control at 500 g/ha / pest or weed control at 2000 g/ha: Setaria faberi, 240 h
# Procedure, shortened: as §1
# common ragweed = assay: Test C pre-/postemergence herbicide test; assay type: in vivo, Ambrosia elatior; set-up: key to Plant response rating, Ragweed: 0 = no effect, 100 = complete control; details: preemergence
# Excerpt: (§2) Seeds of plant species selected from bermudagrass (Cynodon dactylon (L.) Pers.), Surinam grass (Urochloa decumbens (Staph) R. D. Webster, previously named Brachiaria decumbens Stapf), cocklebur (Xanthium strumarium L.), corn (Zea mays L.), large crabgrass (Digitaria sanguinalis (L.) Scop.), woolly cupgrass (Eriochloa villosa (Thunb.) Kunth), giant foxtail (Setaria faberi Herrm.), goosegrass (Eleusine indica (L.) Gaertn.), johnsongrass (Sorghum halepense (L.) Pers.), kochia (Kochia scoparia (L.) Schrad.), lambsquarters (Chenopodium album L.), morningglory (Ipomoea coccinea L.), eastern black nightshade (Solanum ptycanthum Dunal), yellow nutsedge (Cyperus esculentus L.), pigweed (Amaranthus retroflexus L.), common ragweed (Ambrosia elatior L.), soybean (Glycine max (L.) Merr.), common (oilseed) sunflower (Helianthus annuus L.) and velvetleaf (Abutilon theophrasti Medik.) were planted and treated preemergence with test chemicals formulated in a non-phytotoxic solvent mixture which included a surfactant.
# (§3) At the same time, plants selected from these crop and weed species and also winter barley (Hordeum vulgare L.), blackgrass (Alopecurus myosuroides Huds.), canarygrass (Phalaris minor Retz.), chickweed (Stellaria media (L.) Vill.), downy bromegrass (Bromus tectorum L.), green foxtail (Setaria viridis (L.) Beauv.), Italian ryegrass (Lolium multiflorum Lam.), wheat (Triticum aestivum L.), wild oat (Avenafatua L.) and windgrass (Apera spica-venti (L.) Beauv.) were treated with postemergence applications of some of the test chemicals formulated in the same manner. Plants ranged in height from 2 to 18 cm (1- to 4-leaf stage) for postemergence treatments. Plant species in the flooded paddy test consisted of rice (Oryza sativa), smallflower umbrella sedge (Cyperus difformis L.), ducksalad (Heteranthera limosa (Sw.) Willd.) and barnyardgrass (Echinochloa crus-galli (L.) Beauv.) grown to the 2-leaf stage for testing. Treated plants and controls were maintained in a greenhouse for 12 to 14 days, after which time all species were compared to controls and visually evaluated. Plant response ratings, summarized in Table C, are based on a scale of 0 to 100 where 0 is no effect and 100 is complete control. A dash (-) response means no test result.
# large crabgrass = assay: Test C pre-/postemergence herbicide test; assay type: in vivo, Digitaria sanguinalis; details: preemergence
# Excerpt: as §2, §3
# yellow nutsedge = assay: Test C pre-/postemergence herbicide test; assay type: in vivo, Cyperus esculentus; details: preemergence
# Excerpt: as §2, §3
# Surinam grass = assay: Test C pre-/postemergence herbicide test; assay type: in vivo, Urochloa decumbens; details: preemergence
# Excerpt: as §2, §3
# [1] = post-emergence, Postemergence, 500 g ai/ha, 0 to 100 scale, 0 no effect, 100 complete control, read-out: Pigweed plant response rating
# [2] = post-emergence, Postemergence, 2000 g ai/ha, 0 to 100 scale, 0 no effect, 100 complete control, read-out: Plant response rating, Pigweed
# [3] = pre-emergence, Preemergence, 2000 g ai/ha, visual rating, 0 to 100 scale (0 no effect, 100 complete control), read-out: Pigweed plant response rating
# [4] = pre-emergence, preemergence, 500 g ai/ha, visual injury, 0 to 100 scale (0 no effect, 100 complete control), read-out: Pigweed plant response rating
# [5] = post-emergence, postemergence, 125 g ai/ha, visual rating, scale 0 (no effect) to 100 (complete control), read-out: Barnyardgrass plant response rating
# [6] = post-emergence, postemergence, 500 g ai/ha, visual rating, scale 0 (no effect) to 100 (complete control), read-out: Barnyardgrass plant response rating
# [7] = pre-emergence, 500 g ai/ha, visual rating 0-100, 0 no effect, 100 complete control, read-out: Plant response rating, Barnyardgrass
# [8] = pre-emergence, preemergence, 125 g ai/ha, 0 to 100 scale, 0 is no effect, 100 is complete control, read-out: Plant response rating, Barnyardgrass
# [9] = post-emergence, Postemergence, 500 g ai/ha, 0 to 100 scale, 0 no effect, 100 complete control, read-out: Foxtail, Giant plant response rating
# [10] = post-emergence, Postemergence, 2000 g ai/ha, 0 to 100 scale, 0 no effect, 100 complete control, read-out: Plant response rating, Foxtail, Giant
# [11] = pre-emergence, Preemergence, 500 g ai/ha, visual rating, 0 to 100 scale (0 no effect, 100 complete control), read-out: Foxtail, Giant plant response rating
# [12] = pre-emergence, Preemergence, 2000 g ai/ha, visual rating, 0 to 100 scale (0 no effect, 100 complete control), read-out: Foxtail, Giant plant response rating
# [13] = 500 g ai/ha, scale 0 to 100 (0 no effect, 100 complete control), visual, 12 to 14 days
# [14] = 125 g ai/ha, scale 0 (no effect) to 100 (complete control), visual, 12 to 14 days
# [15] = postemergence, 125 g ai/ha, visual rating, scale 0 (no effect) to 100 (complete control)
# [16] = Postemergence, 500 g ai/ha, 0 to 100 scale, 0 no effect, 100 complete control
# [17] = Postemergence, 2000 g ai/ha, 0 to 100 scale, 0 no effect, 100 complete control
# [18] = Preemergence, 500 g ai/ha, visual rating, 0 to 100 scale (0 no effect, 100 complete control)
# [19] = Preemergence, 2000 g ai/ha, visual rating, 0 to 100 scale (0 no effect, 100 complete control)
smiles,measurement,setting,value
"CCn1nc(C(C)(C)C)cc1C(=O)Nc1cccc(C(=O)OC)n1 [Compound 143, methyl 6-[[[3-(1,1-dimethylethyl)-1-ethyl-1H-pyrazol-5-yl]carbonyl]amino]-2-pyridinecarboxylate]",pest or weed control at 1000 g/ha,"ducksalad; visual rating, 13 to 15 days",0%
same,pest or weed control at 500 g/ha,redroot pigweed; [1],20%
same,pest or weed control at 2000 g/ha,redroot pigweed; [2],35%
same,pest or weed control at 2000 g/ha,redroot pigweed; [3],0%
same,pest or weed control at 500 g/ha,redroot pigweed; [4],0%
same,pest or weed control at 125 g/ha,barnyardgrass; [5],0%
same,pest or weed control at 500 g/ha,barnyardgrass; [6],0%
same,pest or weed control at 500 g/ha,barnyardgrass; [7],0%
same,pest or weed control at 125 g/ha,barnyardgrass; [8],0%
same,pest or weed control at 500 g/ha,giant foxtail; [9],10%
same,pest or weed control at 2000 g/ha,giant foxtail; [10],15%
same,pest or weed control at 500 g/ha,giant foxtail; [11],0%
same,pest or weed control at 2000 g/ha,giant foxtail; [12],0%
"CCn1nc(C(C)(C)C)cc1C(=O)Nc1cc(C(=O)OC)ccn1 [Compound 151, methyl 2-[[[3-(1,1-dimethylethyl)-1-ethyl-1H-pyrazol-5-yl]carbonyl]amino]-4-pyridinecarboxylate]",pest or weed control at 1000 g/ha,"ducksalad; visual rating, 13 to 15 days",0%
same,pest or weed control at 500 g/ha,redroot pigweed; [1],35%
same,pest or weed control at 2000 g/ha,redroot pigweed; [2],70%
same,pest or weed control at 2000 g/ha,redroot pigweed; [3],0%
same,pest or weed control at 500 g/ha,redroot pigweed; [4],0%
same,pest or weed control at 125 g/ha,barnyardgrass; [5],0%
same,pest or weed control at 500 g/ha,barnyardgrass; [6],10%
same,pest or weed control at 500 g/ha,barnyardgrass; [7],10%
same,pest or weed control at 125 g/ha,barnyardgrass; [8],0%
same,pest or weed control at 500 g/ha,giant foxtail; [9],10%
same,pest or weed control at 2000 g/ha,giant foxtail; [10],10%
same,pest or weed control at 500 g/ha,giant foxtail; [11],0%
same,pest or weed control at 2000 g/ha,giant foxtail; [12],0%
CCn1nc(C(C)(C)C)cc1C(=O)Nc1cc(C(=O)N2CCCC2)ccc1F [Compound 242],"Plant response rating, Ragweed","common ragweed; 62 g ai/ha, scale 0 to 100",95
same,"Plant response rating, Ragweed","common ragweed; 250 g ai/ha, scale 0-100",100
same,"Plant response rating, Ragweed",common ragweed; [13],100
same,"Plant response rating, Crabgrass, Large","large crabgrass; 62 g ai/ha, scale 0 to 100",100
same,"Plant response rating, Crabgrass, Large",large crabgrass; [14],100
same,"Plant response rating, Crabgrass, Large","large crabgrass; 250 g ai/ha, scale 0-100",100
same,"Plant response rating, Crabgrass, Large",large crabgrass; [13],100
same,Ducksalad plant response rating,ducksalad,90
same,"Plant response rating, Nutsedge, Yellow","yellow nutsedge; 62 g ai/ha, scale 0 to 100",0
same,"Plant response rating, Nutsedge, Yellow",yellow nutsedge; [14],0
same,"Plant response rating, Nutsedge, Yellow","yellow nutsedge; 250 g ai/ha, scale 0-100",15
same,"Plant response rating, Nutsedge, Yellow",yellow nutsedge; [13],25
same,"Plant response rating, Surinam Grass","Surinam grass; 62 g ai/ha, scale 0 to 100",85
same,"Plant response rating, Surinam Grass","Surinam grass; 250 g ai/ha, scale 0-100",95
same,"Plant response rating, Surinam Grass",Surinam grass; [13],100
same,Barnyardgrass plant response rating (0 to 100 scale),"barnyardgrass; 125 g ai/ha, 0 = no effect, 100 = complete control, preemergence",80
same,"Plant response rating, Barnyardgrass","barnyardgrass; 500 g ai/ha, visual rating, 0 = no effect, 100 = complete control, preemergence",100
same,Barnyardgrass plant response rating,barnyardgrass; [15],50
same,Barnyardgrass plant response rating,"barnyardgrass; postemergence, 500 g ai/ha, visual rating, scale 0 (no effect) to 100 (complete control)",60
C=CCn1nc(C(C)(C)C)cc1C(=O)Nc1cccc(C(C)=NO)c1 [Compound 117],Ducksalad plant response rating,"ducksalad; visual rating, 13 to 15 days",80
same,Pigweed plant response rating,redroot pigweed; [16],80
same,"Plant response rating, Pigweed",redroot pigweed; [17],95
same,Pigweed plant response rating,redroot pigweed; [18],55
same,Pigweed plant response rating,redroot pigweed; [19],90
same,"Plant response rating, Barnyardgrass","barnyardgrass; 500 g ai/ha, visual rating 0-100, 0 no effect, 100 complete control, preemergence",90
same,"Plant response rating, Barnyardgrass","barnyardgrass; Postemergence, 500 g ai/ha, visual rating after 13 to 15 days, scale 0 (no effect) to 100 (complete control)",30
same,Barnyardgrass plant response rating,barnyardgrass; [15],20
same,"Plant response rating, Barnyardgrass","barnyardgrass; preemergence, 125 g ai/ha, 0 to 100 scale, 0 is no effect, 100 is complete control",60
same,"Foxtail, Giant plant response rating",giant foxtail; [16],35
same,"Plant response rating, Foxtail, Giant",giant foxtail; [17],55
same,"Foxtail, Giant plant response rating",giant foxtail; [18],25
same,"Foxtail, Giant plant response rating",giant foxtail; [19],60
